Results reported in US20160038468A1 (priority 2013, published 2016).
≈ marks a conversion by molar mass, not a printed value. Where two headings read alike, the source gives them in different places.

Experiments:
Format in all cases: cell-based
Prevotella timonensis = test: Agar dilution MIC (CLSI), Prevotella timonensis vaginal isolates
Finegoldia magna = test: Agar dilution MIC (CLSI), Finegoldia magna vaginal isolates; settings: for MIC: read-out: Minimal Inhibitory Concentration (MIC); for Number of strains with indicated MIC: 20 samples
Peptoniphilus harei = test: Agar dilution MIC (CLSI), Peptoniphilus harei vaginal isolates; settings: for MIC: read-out: Minimal Inhibitory Concentration (MIC)
[1] = test system: Megasphaera-like bacteria; test: Agar dilution MIC (CLSI), Megasphaera-like bacteria vaginal isolates; settings: for MIC: read-out: Minimal Inhibitory Concentration (MIC); for Number of strains with indicated MIC: 25 samples
[2] = Peptoniphilus harei, # tested 23

CCC[C@@H]1C[C@@H](C(=O)N[C@@H]([C@H]2O[C@H](SC)[C@H](O)[C@@H](O)[C@H]2O)[C@H](C)Cl)N(C)C1 [Clindamycin]
Minimal Inhibitory Concentration (MIC) (Prevotella timonensis; isolate 601414 O): >128 µg/mL
Minimal Inhibitory Concentration (MIC) (Prevotella timonensis; isolate 601422 39): >128 µg/mL
Susceptible (Prevotella timonensis; number (%) of isolates, # tested 33): 19 (58) μg/ml
Resistant (Prevotella timonensis; number (%) of isolates, # tested 33, resistance: rifaximin >32, metronidazole >32, clindamycin >8 μg/ml): 14 (42) μg/ml
MIC (Finegoldia magna; Finegoldia magna, isolate 301303V D): 8 µg/mL (≈ 18.8 µM)
MIC (Finegoldia magna; Finegoldia magna, isolate 601205V 39): 8 µg/mL (≈ 18.8 µM)
MIC (Finegoldia magna; Finegoldia magna, isolate 601275V c): 128 µg/mL (≈ 301 µM)
MIC (Finegoldia magna; Finegoldia magna, isolate 601276V 23): 0.5 µg/mL (≈ 1.18 µM)
MIC (Finegoldia magna; Finegoldia magna, isolate 601283V 14): 4 µg/mL (≈ 9.41 µM)
MIC (Finegoldia magna; Finegoldia magna, isolate 601295V 25): 0.25 µg/mL (≈ 0.588 µM)
MIC (Finegoldia magna; Finegoldia magna, isolate 601298V 30): 128 µg/mL (≈ 301 µM)
MIC (Finegoldia magna; Finegoldia magna, isolate 601308V 24): 0.25 µg/mL (≈ 0.588 µM)
MIC (Finegoldia magna; Finegoldia magna, isolate 601315V 17): 4 µg/mL (≈ 9.41 µM)
MIC (Finegoldia magna; Finegoldia magna, isolate 601315V 17A): 4 µg/mL (≈ 9.41 µM)
MIC (Finegoldia magna; Finegoldia magna, isolate 601320V 24): 0.5 µg/mL (≈ 1.18 µM)
MIC (Finegoldia magna; Finegoldia magna, isolate 601323V K): 0.25 µg/mL (≈ 0.588 µM)
MIC (Finegoldia magna; Finegoldia magna, isolate 601330V c): 0.25 µg/mL (≈ 0.588 µM)
MIC (Finegoldia magna; Finegoldia magna, isolate 601335V c1): 0.5 µg/mL (≈ 1.18 µM)
MIC (Finegoldia magna; Finegoldia magna, isolate 601340V 27): 0.25 µg/mL (≈ 0.588 µM)
MIC (Finegoldia magna; Finegoldia magna, isolate 601359V c): 0.25 µg/mL (≈ 0.588 µM)
MIC (Finegoldia magna; Finegoldia magna, isolate 601363V 6): 0.03 µg/mL (≈ 0.0706 µM)
MIC (Finegoldia magna; Finegoldia magna, isolate 601367V c): 0.5 µg/mL (≈ 1.18 µM)
MIC (Finegoldia magna; Finegoldia magna): > 128 µg/mL
MIC50 (Finegoldia magna; Finegoldia magna, # tested 20): 0.5 µg/mL (≈ 1.18 µM)
MIC90 (Finegoldia magna; Finegoldia magna, # tested 20): 128 µg/mL (≈ 301 µM)
Number of strains with indicated MIC (Finegoldia magna; MIC 0.03 μg/ml): 1
Number of strains with indicated MIC (Finegoldia magna; MIC 8 μg/ml): 2
Number of strains with indicated MIC (Finegoldia magna; MIC >[…]): 2
Minimal Inhibitory Concentration (MIC) (Finegoldia magna; isolate 601214V F): >128 µg/mL
Number of strains with indicated MIC (Peptoniphilus harei; MIC >[…], 23 samples): 2
MIC (Peptoniphilus harei; Peptoniphilus harei, isolate 601098V Q): 1 µg/mL (≈ 2.35 µM)
MIC (Peptoniphilus harei; Peptoniphilus harei, isolate 601203V 8): 0.25 µg/mL (≈ 0.588 µM)
MIC (Peptoniphilus harei; Peptoniphilus harei, isolate 601212V 15): 1 µg/mL (≈ 2.35 µM)
MIC (Peptoniphilus harei; Peptoniphilus harei, isolate 601248V 23): 0.5 µg/mL (≈ 1.18 µM)
MIC (Peptoniphilus harei; Peptoniphilus harei, isolate 601259V 11): 1 µg/mL (≈ 2.35 µM)
MIC (Peptoniphilus harei; Peptoniphilus harei, isolate 601289V C): 1 µg/mL (≈ 2.35 µM)
MIC (Peptoniphilus harei; Peptoniphilus harei, isolate 601293V 21): 0.25 µg/mL (≈ 0.588 µM)
MIC (Peptoniphilus harei; Peptoniphilus harei, isolate 601302V F1): 0.5 µg/mL (≈ 1.18 µM)
MIC (Peptoniphilus harei; Peptoniphilus harei, isolate 601311V R): 0.125 µg/mL (≈ 0.294 µM)
MIC (Peptoniphilus harei; Peptoniphilus harei, isolate 601326V F): 1 µg/mL (≈ 2.35 µM)
MIC (Peptoniphilus harei; Peptoniphilus harei, isolate 601342V F): 0.125 µg/mL (≈ 0.294 µM)
MIC (Peptoniphilus harei; Peptoniphilus harei, isolate 601355V D): 0.25 µg/mL (≈ 0.588 µM)
MIC (Peptoniphilus harei; Peptoniphilus harei, isolate 601365V 14): 0.125 µg/mL (≈ 0.294 µM)
MIC (Peptoniphilus harei; Peptoniphilus harei, isolate 601374V F): 0.5 µg/mL (≈ 1.18 µM)
MIC (Peptoniphilus harei; Peptoniphilus harei, isolate 601388V Q): 0.5 µg/mL (≈ 1.18 µM)
MIC (Peptoniphilus harei; Peptoniphilus harei, isolate 601399V 16): 0.25 µg/mL (≈ 0.588 µM)
MIC (Peptoniphilus harei; Peptoniphilus harei, isolate 601409V L): 0.25 µg/mL (≈ 0.588 µM)
MIC (Peptoniphilus harei; Peptoniphilus harei, isolate 601413V 16): 0.25 µg/mL (≈ 0.588 µM)
MIC (Peptoniphilus harei; Peptoniphilus harei, isolate 601426V D): 0.125 µg/mL (≈ 0.294 µM)
MIC (Peptoniphilus harei; Peptoniphilus harei, isolate 601430V 22): 0.125 µg/mL (≈ 0.294 µM)
MIC (Peptoniphilus harei; Peptoniphilus harei, isolate 601539V 25B): 0.25 µg/mL (≈ 0.588 µM)
MIC (Peptoniphilus harei; Peptoniphilus harei): > 128 µg/mL
MIC50 (Peptoniphilus harei; [2]): 0.5 µg/mL (≈ 1.18 µM)
MIC90 (Peptoniphilus harei; [2]): 1 µg/mL (≈ 2.35 µM)
Minimal Inhibitory Concentration (MIC) (Peptoniphilus harei; isolate 426868V D): >128 µg/mL
Susceptible (Peptoniphilus harei; number (%) of isolates, # tested 23): 21 (91) μg/ml
Resistant (Peptoniphilus harei; number (%) of isolates, # tested 23, resistance: rifaximin >32, metronidazole >32, clindamycin >8 μg/ml): 2 (9) μg/ml
MIC ([1]; 427510 h, isolate 427507 H): 0.03 µg/mL (≈ 0.0706 µM)
MIC50 ([1]; # tested 25): 0.03 µg/mL (≈ 0.0706 µM)
MIC90 ([1]; # tested 25): 0.03 µg/mL (≈ 0.0706 µM)
MIC Range ([1]; # tested 25): 0.03 to 0.125 µg/mL
Number of strains with indicated MIC ([1]; MIC 0.03 μg/ml): 24
Number of strains with indicated MIC ([1]; MIC […]): 1
MIC ([1]; isolate 426749 T): 0.03 µg/mL (≈ 0.0706 µM)
MIC ([1]; isolate 426766 Q): 0.03 µg/mL (≈ 0.0706 µM)
MIC ([1]; isolate 426788 8a): 0.03 µg/mL (≈ 0.0706 µM)
MIC ([1]; isolate 426788 C): 0.03 µg/mL (≈ 0.0706 µM)
MIC ([1]; isolate 427470 10): 0.03 µg/mL (≈ 0.0706 µM)
MIC ([1]; isolate 427490 2u): 0.03 µg/mL (≈ 0.0706 µM)
MIC ([1]; isolate 427509 A): 0.125 µg/mL (≈ 0.294 µM)
MIC ([1]; isolate 427522 8): 0.03 µg/mL (≈ 0.0706 µM)
MIC ([1]; isolate 600770 O): 0.03 µg/mL (≈ 0.0706 µM)
MIC ([1]; isolate 600790 N): 0.03 µg/mL (≈ 0.0706 µM)
MIC ([1]; isolate 600796 V): 0.03 µg/mL (≈ 0.0706 µM)
MIC ([1]; isolate 600831 9): 0.03 µg/mL (≈ 0.0706 µM)
MIC ([1]; isolate 600837 18): 0.03 µg/mL (≈ 0.0706 µM)
MIC ([1]; isolate 600861 P): 0.03 µg/mL (≈ 0.0706 µM)
MIC ([1]; isolate 602236 E3): 0.03 µg/mL (≈ 0.0706 µM)
MIC ([1]; isolate 602241 D): 0.03 µg/mL (≈ 0.0706 µM)
MIC ([1]; isolate 602241 F): 0.03 µg/mL (≈ 0.0706 µM)
MIC ([1]; isolate 602270 A): 0.03 µg/mL (≈ 0.0706 µM)
MIC ([1]; isolate 602282 I): 0.03 µg/mL (≈ 0.0706 µM)
MIC ([1]; isolate 602288 16): 0.03 µg/mL (≈ 0.0706 µM)
MIC ([1]; isolate 602302 22): 0.03 µg/mL (≈ 0.0706 µM)
MIC ([1]; isolate 602305 I): 0.03 µg/mL (≈ 0.0706 µM)
MIC ([1]; isolate 602324 8): 0.03 µg/mL (≈ 0.0706 µM)
MIC ([1]; isolate 602672 12A): 0.03 µg/mL (≈ 0.0706 µM)
